From patent US20090233957A1, “(-)-BELOXEPIN AND METHODS FOR ITS SYNTHESIS AND USE” (priority 2008, published 2009)

What was measured:
[1] = biological target: T1, cloned human 5HT2C receptor (Homo sapiens, UniProt P28335); assay: 5HT2C functional assay, intracellular Ca2+ in CHO cells; format: cell-based
T1 construct: expressed in transfected cells; host or cells: CHO cells
T1 sequence (P28335 33-458): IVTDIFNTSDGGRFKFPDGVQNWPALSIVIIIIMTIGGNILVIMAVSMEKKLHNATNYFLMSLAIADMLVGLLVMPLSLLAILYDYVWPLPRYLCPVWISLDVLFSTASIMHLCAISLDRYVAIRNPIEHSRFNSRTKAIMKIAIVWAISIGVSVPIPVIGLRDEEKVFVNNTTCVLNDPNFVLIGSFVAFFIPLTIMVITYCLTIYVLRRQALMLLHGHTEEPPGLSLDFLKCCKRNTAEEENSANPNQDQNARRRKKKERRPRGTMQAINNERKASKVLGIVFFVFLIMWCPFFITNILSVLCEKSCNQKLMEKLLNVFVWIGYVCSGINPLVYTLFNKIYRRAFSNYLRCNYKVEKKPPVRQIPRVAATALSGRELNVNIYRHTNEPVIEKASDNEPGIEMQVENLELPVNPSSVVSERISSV
Procedure: (§1) Agonist effects at the 5HT2C receptor were assessed by incubation at 22° C. of a series of concentrations of test compound with intact CHO cells heterologously expressing the cloned human 5HT2C receptor and measuring intracellular [Ca^2+] by fluorimetry according to the method of Jerman et al., 2001, Eur. J. Pharmacol. 414:23-30. Antagonist effects were assessed by the ability of a series of concentrations of test compound to block the increase in intracellular [Ca^2+] that occurred in the presence of 3.0 nM serotonin under the same conditions. EC50 and IC50 values were determined using standard methods.

[2] = system: rat 50° C. hot plate model; assay: rat 50° C. hot plate assay; format: in vivo
Procedure: Protocol. Rats were treated with vehicle, 30 mg/kg IP of (−)-beloxepin, or 30 mg/kg IP of (+)-beloxepin and then were placed on a hot plate (50° C.) 30, 60, or 120 minutes after administration of the vehicle or beloxepin enantiomer. Rats treated with 3 mg/kg SC of morphine and tested 30 min post-treatment were used as a positive control in these experiments.

[3] = biological target: T2, cloned human NE transporter (hNET) (Homo sapiens, UniProt P23975); assay: NE transporter binding assay, [3H]nisoxetine; details: membranes of CHO cells expressing hNET; read-out: NET Ki
T2 construct: expressed in transfected cells; host or cells: CHO cells
T2 sequence (P23975 whole entry): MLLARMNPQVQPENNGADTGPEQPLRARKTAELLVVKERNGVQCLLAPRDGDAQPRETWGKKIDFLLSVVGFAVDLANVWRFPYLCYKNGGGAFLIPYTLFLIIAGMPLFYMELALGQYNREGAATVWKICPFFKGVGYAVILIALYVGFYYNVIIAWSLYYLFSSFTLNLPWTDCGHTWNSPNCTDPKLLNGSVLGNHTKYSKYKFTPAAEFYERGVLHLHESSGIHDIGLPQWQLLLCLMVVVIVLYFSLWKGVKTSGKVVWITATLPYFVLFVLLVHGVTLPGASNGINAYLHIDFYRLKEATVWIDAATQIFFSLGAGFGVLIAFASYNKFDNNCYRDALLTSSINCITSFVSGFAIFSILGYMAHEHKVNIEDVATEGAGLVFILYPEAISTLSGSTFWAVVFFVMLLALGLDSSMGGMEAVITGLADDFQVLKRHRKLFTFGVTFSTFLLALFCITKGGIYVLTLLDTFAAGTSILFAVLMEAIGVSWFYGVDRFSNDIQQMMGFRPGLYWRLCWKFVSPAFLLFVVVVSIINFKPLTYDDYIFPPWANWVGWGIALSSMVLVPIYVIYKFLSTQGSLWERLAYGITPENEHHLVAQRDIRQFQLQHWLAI
Procedure: Protocols. For the NE transporter binding assay, [^3H]nisoxetine (1.0 nM) was incubated with various concentrations of test compounds for 2 hours at 4° C. with membranes prepared from Chinese hamster ovary cells (CHO) cells heterologously expressing the cloned human NE transporter (hNET). Bound radioactivity was determined by scintillation spectroscopy.

[4] = biological target: T3, cloned human 5HT2A receptor (Homo sapiens, UniProt P28223); assay: 5HT2A receptor binding assay, [3H]ketanserin; details: HEK-293 membranes
T3 construct: expressed in transfected cells; host or cells: HEK-293 cells
T3 sequence (P28223 whole entry): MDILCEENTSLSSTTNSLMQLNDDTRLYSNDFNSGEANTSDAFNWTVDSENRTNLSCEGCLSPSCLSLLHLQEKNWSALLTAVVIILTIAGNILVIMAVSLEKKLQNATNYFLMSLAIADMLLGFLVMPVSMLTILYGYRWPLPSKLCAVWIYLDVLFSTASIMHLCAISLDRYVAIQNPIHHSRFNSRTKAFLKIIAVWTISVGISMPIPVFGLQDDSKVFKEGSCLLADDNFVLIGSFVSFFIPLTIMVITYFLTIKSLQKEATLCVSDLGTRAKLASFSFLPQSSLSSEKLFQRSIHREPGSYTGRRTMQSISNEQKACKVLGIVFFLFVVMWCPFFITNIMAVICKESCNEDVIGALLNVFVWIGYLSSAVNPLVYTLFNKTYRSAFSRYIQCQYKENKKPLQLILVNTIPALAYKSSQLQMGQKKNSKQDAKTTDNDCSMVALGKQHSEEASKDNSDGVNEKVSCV
Procedure: For the 5HT2A receptor binding assay, [^3H]ketanserin (0.5 nM) was incubated for 60 min at 22° C. with membranes prepared from HEK-293 cells heterologously expressing the cloned human 5-HT2A receptor according to the method of Bonhaus et al., 1995, Brit. J. Pharmacol. 115:622-628. Various concentrations of test compound were added and bound radioactivity was determined by scintillation counting. Non-specific binding was determined in the presence of 1.0 μM unlabeled ketanserin. The Ki value for the test compound was determined using standard methods.

[5] = system: rat hindpaw incision model; assay: rat hindpaw incisional pain model, tactile allodynia; format: in vivo; details: 30 mg/kg IP, 24 hours post-surgery
Procedure: Protocol. A time course experiment was also performed with (−)-beloxepin in the hindpaw incision model. At 24 hours post-surgery, rats received vehicle or (−)-beloxepin (30 mg/kg IP). Rats were tested for tactile allodynia at 30, 60, 120 and 240 minutes after administration of (−)-beloxepin.
Protocol. Another time course experiment was performed with (+)-beloxepin in the hindpaw incision model. At 24 hours post-surgery, rats received vehicle or (+)-beloxepin (30 mg/kg IP). Rats were tested for tactile allodynia at 30, 60, 120 and 240 minutes after administration of (+)-beloxepin.

[6] = biological target: T4, cloned human 5HT2B receptor (Homo sapiens, UniProt P41595); assay: 5HT2B functional assay, intracellular Ca2+ in CHO cells; format: cell-based
T4 construct: expressed in transfected cells; host or cells: CHO cells
T4 sequence (P41595 whole entry): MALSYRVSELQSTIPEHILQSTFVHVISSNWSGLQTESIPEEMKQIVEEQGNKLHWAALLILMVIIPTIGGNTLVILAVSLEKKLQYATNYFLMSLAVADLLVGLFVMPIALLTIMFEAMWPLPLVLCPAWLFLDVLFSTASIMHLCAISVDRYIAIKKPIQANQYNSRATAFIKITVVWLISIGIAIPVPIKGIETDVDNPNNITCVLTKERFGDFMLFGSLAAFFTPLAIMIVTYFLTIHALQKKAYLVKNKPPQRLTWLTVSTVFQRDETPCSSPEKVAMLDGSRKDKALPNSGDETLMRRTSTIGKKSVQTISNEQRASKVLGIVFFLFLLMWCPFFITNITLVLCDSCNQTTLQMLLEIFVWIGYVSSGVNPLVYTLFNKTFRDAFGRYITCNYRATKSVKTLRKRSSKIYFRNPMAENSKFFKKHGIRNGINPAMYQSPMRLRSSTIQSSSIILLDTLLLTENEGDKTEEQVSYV
Procedure: as §1, with “5HT2B” for “5HT2C”, “Porter” for “Jerman”, “1991, Brit.” for “2001, Eur.”, “128:13-20.” for “414:23-30.”, “0.3” for “3.0”

[7] = biological target: NET (rat hypothalamus synaptosomes) (Rattus norvegicus, UniProt Q63380); assay: NE uptake inhibition assay, [3H]norepinephrine into synaptosomes; format: biochemical; details: 20 min 37° C., read-out: NET IC50 (norepinephrine reuptake inhibition)
Chain of NET (rat hypothalamus synaptosomes) (Q63380 1-617): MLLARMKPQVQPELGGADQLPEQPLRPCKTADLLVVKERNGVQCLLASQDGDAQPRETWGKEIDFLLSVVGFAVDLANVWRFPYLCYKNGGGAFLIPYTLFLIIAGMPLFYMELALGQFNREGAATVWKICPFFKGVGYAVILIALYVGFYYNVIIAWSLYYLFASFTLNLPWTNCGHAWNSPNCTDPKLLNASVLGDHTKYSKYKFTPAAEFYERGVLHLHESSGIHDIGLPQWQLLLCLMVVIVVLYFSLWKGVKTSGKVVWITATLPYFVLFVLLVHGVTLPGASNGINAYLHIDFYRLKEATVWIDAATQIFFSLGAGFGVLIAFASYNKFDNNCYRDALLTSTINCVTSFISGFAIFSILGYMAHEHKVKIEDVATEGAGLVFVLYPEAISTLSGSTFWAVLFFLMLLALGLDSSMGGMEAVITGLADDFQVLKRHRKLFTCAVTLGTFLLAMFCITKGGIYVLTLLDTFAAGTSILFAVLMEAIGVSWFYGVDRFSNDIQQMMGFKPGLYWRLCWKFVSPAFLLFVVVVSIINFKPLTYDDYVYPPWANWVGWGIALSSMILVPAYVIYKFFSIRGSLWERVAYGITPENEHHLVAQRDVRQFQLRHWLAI

## Cc1cccc2c1Oc1ccccc1C1(O)CCN(C)CC21 (single isomer, unassigned; (+)) [(+)-beloxepin]
[1]
  5HT2C functional activity type: antagonist
[1]; antagonist mode, vs 3.0 nM serotonin
  IC50: 7200 nM
[2]; 30 mg/kg IP, 30, 60, 120 min
  antinociceptive activity: no antinociception was observed
[2]; 30 mg/kg IP, 30, 60 or 120 min
  % MPE values (range): 10-17%
[3]
  Ki: 2920 nM
[4]
  Ki: 97 nM
[5]; 30 minute time point
  maximum hindpaw withdrawal threshold: ~28 grams
[5]; tested 30, 60, 120, 240 min
  antiallodynic effect: significant antiallodynic effect at the 30 and 60 minute time points
[6]
  5HT2B functional activity type: antagonist
[6]; antagonist mode, vs 0.3 nM serotonin
  IC50: 690 nM
[7]
  IC50: 1200 nM
